PubChem BioAssay AID248 (DTP/NCI, 2004)
Values joined by “and” are separate entries in the source; they are usually repeats but may differ in a detail not shown here. Identical values can stand only once. Inconclusive results and toxic doses are left out. No stated cut-off is given here; in the data, active means T/C of 150% or more; inactive means T/C below 125%.

System: L1210 leukemia ip in BDF1 mice, survival T/C
Experiment: NCI In Vivo Anticancer Drug Screen. Data for tumor model L1210 Leukemia (intraperitoneal) in B6D2F1 (BDF1) mice
Settings: endpoint: mean survival time, higher = longer survival
Procedure, shortened: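 In this screen, tumor-bearing mice given compound are compared to those given vehicle, and their survival values are reported as a treated-to-control quotient.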

[1] = dose: 6.25 mg/kg/injection, schedule: Q01DX009 (ip), vehicle: saline
[2] = dose: 12.5 mg/kg/injection, schedule: Q01DX009 (ip), vehicle: saline
[3] = dose: 100.0 mg/kg/injection, schedule: Q04DX003 (ip), vehicle: saline with Tween-80
[4] = dose: 200.0 mg/kg/injection, schedule: Q04DX003 (ip), vehicle: saline with Tween-80
[5] = dose: 100.0 mg/kg/injection, schedule: Q04DX002 (ip), vehicle: saline with Tween-80
[6] = dose: 200.0 mg/kg/injection, schedule: Q04DX002 (ip), vehicle: saline with Tween-80
[7] = dose: 400.0 mg/kg/injection, schedule: Q04DX002 (ip), vehicle: saline with Tween-80
[8] = dose: 50.0 mg/kg/injection, schedule: Q01DX001 (ip), vehicle: carboxymethylcellulose (CMC)
[9] = dose: 100.0 mg/kg/injection, schedule: Q01DX001 (ip), vehicle: carboxymethylcellulose (CMC)
[10] = dose: 200.0 mg/kg/injection, schedule: Q01DX001 (ip), vehicle: carboxymethylcellulose (CMC)
[11] = dose: 100.0 mg/kg/injection, schedule: Q04DX003 (ip), vehicle: Klucel (hydroxypropylcellulose) (HPC)
[12] = dose: 200.0 mg/kg/injection, schedule: Q04DX003 (ip), vehicle: Klucel (hydroxypropylcellulose) (HPC)
[13] = dose: 400.0 mg/kg/injection, schedule: Q04DX003 (ip), vehicle: Klucel (hydroxypropylcellulose) (HPC)
[14] = dose: 100.0 mg/kg/injection, schedule: Q04DX003 (ip), vehicle: saline
[15] = dose: 200.0 mg/kg/injection, schedule: Q04DX003 (ip), vehicle: saline
[16] = dose: 400.0 mg/kg/injection, schedule: Q04DX003 (ip), vehicle: saline
[17] = dose: 400.0 mg/kg/injection, schedule: Q01DX001 (ip), vehicle: carboxymethylcellulose (CMC)

Measured: T/C

COc1ccccc1CN1CCCN(Cc2ccccc2OC)C1c1ccc(C2N(Cc3ccccc3OC)CCCN2Cc2ccccc2OC)cc1
inactive: dose: 100.0 mg/kg/injection, schedule: Q01DX001 (ip), vehicle: acetone 102 % of control | dose: 200.0 mg/kg/injection, schedule: Q01DX001 (ip), vehicle: acetone 96 % of control | dose: 400.0 mg/kg/injection, schedule: Q01DX001 (ip), vehicle: acetone 96 % of control

O=C1C=CC(=O)N1CN1CCOCC1 (tested in a mixture with another compound)
inactive: [1] 92 % of control | [2] 100 % of control | dose: 100.0 mg/kg/injection, schedule: Q01DX001 (ip), vehicle: Klucel (hydroxypropylcellulose) (HPC) 103 % of control and 100 % of control | dose: 200.0 mg/kg/injection, schedule: Q01DX001 (ip), vehicle: Klucel (hydroxypropylcellulose) (HPC) 103 % of control and 100 % of control and 97 % of control | dose: 400.0 mg/kg/injection, schedule: Q01DX001 (ip), vehicle: Klucel (hydroxypropylcellulose) (HPC) 95 % of control [middle of 4 runs]

O=C(OC(c1ccccc1)c1ccccc1)C(=O)c1ccccc1
inactive: [3] 92 % of control | [4] 89 % of control | dose: 400.0 mg/kg/injection, schedule: Q04DX003 (ip), vehicle: saline with Tween-80 92 % of control

Nc1ccc(OCCNC(=O)c2ccc(S(=O)(=O)F)cc2)c(Cl)c1
inactive: dose: 100.0 mg/kg/injection, schedule: Q01DX001 (ip), vehicle: saline with Tween-80 94 % of control | dose: 200.0 mg/kg/injection, schedule: Q01DX001 (ip), vehicle: saline with Tween-80 89 % of control | dose: 400.0 mg/kg/injection, schedule: Q01DX001 (ip), vehicle: saline with Tween-80 96 % of control

CCOc1nc(SCC)ncc1C
inactive: dose: 100.0 mg/kg/injection, schedule: Q01DX009 (ip), vehicle: water 107 % of control | dose: 100.0 mg/kg/injection, schedule: Q04DX003 (ip), vehicle: water 101 % of control | dose: 200.0 mg/kg/injection, schedule: Q01DX009 (ip), vehicle: water 106 % of control | dose: 200.0 mg/kg/injection, schedule: Q04DX003 (ip), vehicle: water 95 % of control | dose: 400.0 mg/kg/injection, schedule: Q04DX003 (ip), vehicle: water 103 % of control

O=[N+]([O-])c1ccc(O)c(/C=N/N2CCCCC2)c1
inactive: [5] 94 % of control | [6] 97 % of control | [7] 108 % of control

CN1CCC=C(C(=O)O)C1
inactive: [8] 101 % of control | [9] 110 % of control | [10] 104 % of control

O=[N+]([O-])c1ccc(SCCCN2CCCCC2)c([N+](=O)[O-])c1
inactive: [8] 96 % of control

CC(C)(C)NS(=O)(=O)c1ccc(Cl)c([N+](=O)[O-])c1
inactive: [11] 95 % of control | [12] 93 % of control | [13] 90 % of control

CCC(C(OC(C)=O)C(C)C)[N+](=O)[O-] (stereo unspecified)
inactive: dose: 9.38 mg/kg/injection, schedule: Q01DX001 (ip), vehicle: other 104 % of control | dose: 18.75 mg/kg/injection, schedule: Q01DX001 (ip), vehicle: other 105 % of control

O=C(OCCNC(=O)N1CCOCC1)OCCNC(=O)N1CCOCC1
inactive: [14] 100 % of control | [15] 100 % of control | [16] 106 % of control

CC(=O)Oc1cc2c(cc1OC(C)=O)C(Br)CCCC2=O (stereo unspecified)
inactive: dose: 100.0 mg/kg/injection, schedule: Q01DX009 (ip), vehicle: other 96 % of control | dose: 100.0 mg/kg/injection, schedule: Q04DX003 (ip), vehicle: other 94 % of control | dose: 200.0 mg/kg/injection, schedule: Q01DX009 (ip), vehicle: other 93 % of control | dose: 200.0 mg/kg/injection, schedule: Q04DX003 (ip), vehicle: other 102 % of control | dose: 400.0 mg/kg/injection, schedule: Q01DX009 (ip), vehicle: other 104 % of control | dose: 400.0 mg/kg/injection, schedule: Q04DX003 (ip), vehicle: other 104 % of control

CCCCCCCC1N(C)CCCN1C
inactive: dose: 25.0 mg/kg/injection, schedule: Q01DX009 (ip), vehicle: saline with Tween-80 88 % of control | dose: 25.0 mg/kg/injection, schedule: Q04DX003 (ip), vehicle: saline with Tween-80 93 % of control | dose: 50.0 mg/kg/injection, schedule: Q01DX009 (ip), vehicle: saline with Tween-80 95 % of control | dose: 50.0 mg/kg/injection, schedule: Q04DX003 (ip), vehicle: saline with Tween-80 96 % of control | [3] 95 % of control and 92 % of control

CCC(C)COC(=O)c1cccc2c1-c1ccccc1C2=O (stereo unspecified)
inactive: dose: 100.0 mg/kg/injection, schedule: Q01DX001 (ip), vehicle: other 98 % of control | dose: 200.0 mg/kg/injection, schedule: Q01DX001 (ip), vehicle: other 88 % of control | dose: 400.0 mg/kg/injection, schedule: Q01DX001 (ip), vehicle: other 93 % of control

c1ccc2c(c1)CC1CCCCN1C2 (stereo unspecified)
inactive: dose: 12.5 mg/kg/injection, schedule: Q01DX001 (ip), vehicle: Klucel (hydroxypropylcellulose) (HPC) 93 % of control | dose: 25.0 mg/kg/injection, schedule: Q01DX001 (ip), vehicle: Klucel (hydroxypropylcellulose) (HPC) 98 % of control | dose: 25.0 mg/kg/injection, schedule: Q01DX009 (ip), vehicle: saline 96 % of control | dose: 50.0 mg/kg/injection, schedule: Q01DX001 (ip), vehicle: Klucel (hydroxypropylcellulose) (HPC) 93 % of control | dose: 50.0 mg/kg/injection, schedule: Q01DX009 (ip), vehicle: saline 106 % of control | [14] 88 % of control

CCCC(P(c1ccccc1)c1ccccc1)P(=O)(c1ccccc1)c1ccccc1 (stereo unspecified)
inactive: [5] 94 % of control | [6] 94 % of control | [7] 94 % of control

O=C(O)C1=NN(c2cc(Cl)c(S(=O)(=O)O)cc2Cl)C(=O)C1
inactive: [14] 92 % of control | [15] 100 % of control | [16] 106 % of control

CCCCCCCNC(C)(C)C(SSSC(c1ccc(Cl)cc1)C(C)(C)NCCCCCCC)c1ccc(Cl)cc1 (stereo unspecified)
inactive: [11] 101 % of control | [12] 101 % of control | [13] 98 % of control

IC1CCCCC1[n+]1ccccc1 (stereo unspecified)
inactive: dose: 100.0 mg/kg/injection, schedule: Q04DX003 (sc), vehicle: olive oil, sesame oil, peanut oil 105 % of control | dose: 200.0 mg/kg/injection, schedule: Q04DX003 (sc), vehicle: olive oil, sesame oil, peanut oil 103 % of control | dose: 400.0 mg/kg/injection, schedule: Q04DX003 (sc), vehicle: olive oil, sesame oil, peanut oil 101 % of control

COC(=O)C(N)CSC (stereo unspecified)
inactive: dose: 100.0 mg/kg/injection, schedule: Q01DX009 (ip), vehicle: saline 101 % of control | [14] 101 % of control | dose: 200.0 mg/kg/injection, schedule: Q01DX009 (ip), vehicle: saline 98 % of control | [15] 97 % of control | dose: 400.0 mg/kg/injection, schedule: Q01DX009 (ip), vehicle: saline 95 % of control | [16] 101 % of control

O=C(Nn1cn[nH]c1=S)Oc1ccccc1
inactive: [3] 103 % of control | [4] 103 % of control

CSc1ccc2c(c1)N(CCC1CCCCN1C)c1ccccc1S2 (stereo unspecified)
inactive: dose: 0.78 mg/kg/injection, schedule: Q01DX009 (ip), vehicle: saline 101 % of control | dose: 1.56 mg/kg/injection, schedule: Q01DX009 (ip), vehicle: saline 103 % of control | dose: 3.12 mg/kg/injection, schedule: Q01DX009 (ip), vehicle: saline 94 % of control and 98 % of control | [1] 94 % of control and 101 % of control | [2] 98 % of control and 116 % of control | dose: 25.0 mg/kg/injection, schedule: Q04DX003 (ip), vehicle: saline 103 % of control | dose: 50.0 mg/kg/injection, schedule: Q04DX003 (ip), vehicle: saline 92 % of control

CC(=O)Nc1ccc2c(c1)Cc1c(F)ccc(F)c1-2
inactive: [8] 98 % of control | [9] 91 % of control | [10] 91 % of control | [17] 98 % of control

COC(=O)c1ccncc1
inactive: [14] 101 % of control | [15] 98 % of control | [16] 104 % of control

Clc1ccc(/C=N/N2CCN(/N=C/c3ccc(Cl)cc3)CC2)cc1
inactive: [9] 96 % of control | [10] 96 % of control | [17] 96 % of control
